In US10875876B2, “Cyclized sulfamoylarylamide derivatives and the use thereof as medicaments for the treatment of hepatitis B” (priority 2015, dated 2020) one finds EC50, melting point and CC50 data, which are given here for 24 compounds.

Read-outs that look alike come from different tables or passages of the source. Some results are limits rather than exact numbers.

The subject of data set [1] is HBV. The data set can be described thus: anti HBV activity, HepG2.117 cell line, intracellular HBV DNA by realtime PCR. The format is cell-based. Particulars: HepG2.117 cell line (Tet-off), 3 days of treatment, intracellular HBV DNA quantified by realtime PCR, read-out: HBV-AVE-HepG2.117 EC50. The gist of the method:
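Readout was intracellular HBV DNA by real-time PCR (HBV-specific primers and probe) after 3 days of compound exposure. Serial dilutions were tested in duplicate on HepG2.117 cells, a stable inducible HBV producer in which replication is switched on when doxycycline is absent.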

Data set [2] is described as follows: Cytotoxicity in HepG2 cells, Resazurin assay. To be noted: human, HepG2 cells, TOX-HepG2-4 d CC50 (μM), HepG2 cells incubated for 4 days, viability by Resazurin assay. On the technique in general: Alamar Blue is a resazurin reagent that responds to reducing activity.
[3] abbreviates: Hepatitis B virus, HepG2.117, 72 h.

One may read the EC50 as the concentration at which the effect is half-maximal. A word on the melting point: it is the temperature of the solid-liquid transition. One may read the CC50 as the concentration that lowers cell viability or growth by half. With `Cn1cc2c(c1C(=O)Nc1ccnc(Cl)c1)OC[C@H](C(C)(C)O)NS2(=O)=O` [Compound 146, (3R)—N-(2-chloro-4-pyridyl)-3-(1-hydroxy-1-methyl-ethyl)-7-methyl-1,1-dioxo-3,4-dihydro-2H-pyrrolo[3,4-b][1,4,5]oxathiazepine-6-carboxamide], the melting point is 246.6 °C. Moreover, the 50% effective concentration (EC50) in data set [1] (setting [3]) was 55 nM. In data set [2], the cytotoxic concentration (CC50) at 4 days was over 25 µM.

For `CCC(O)[C@@H]1COc2c(cn(C)c2C(=O)Nc2ccc(F)c(C#N)c2)S(=O)(=O)N1` (stereo in doubt) [Compound 163, N-(3-cyano-4-fluoro-phenyl)-3-(1-hydroxypropyl)-7-methyl-1,1-dioxo-3,4-dihydro-2H-pyrrolo[3,4-b][1,4,5]oxathiazepine-6-carboxamide], the melting point worked out at 247 °C. Further, the concentration giving a half-maximal response (EC50) in data set [1] (setting [3]) is over 125 nM. For the same compound, the CC50 at 4 days in data set [2] is over 25 µM.

In turn, `Cn1cc2c(c1C(=O)Nc1ccc(F)c(C#N)c1)OC[C@@H](C(C)(C)O)NS2(=O)=O` [Compound 107, (3S)—N-(3-cyano-4-fluoro-phenyl)-3-(1-hydroxy-1-methyl-ethyl)-7-methyl-1,1-dioxo-3,4-dihydro-2H-pyrrolo[3,4-b][1,4,5]oxathiazepine-6-carboxamide] gave a melting point of 259.8 °C. Also, in data set [1] (setting [3]), the EC50 was determined as 80 nM. The compound further displayed a cytotoxic concentration (CC50) at 4 days in data set [2] of over 25 µM.

`Cn1cc2c(c1C(=O)Nc1ccc(F)c(C(F)F)c1F)OC[C@H](C(C)(C)O)NS2(=O)=O` [Compound 182, (3R)—N-[3-(difluoromethyl)-2,4-difluoro-phenyl]-3-(1-hydroxy-1-methyl-ethyl)-7-methyl-1,1-dioxo-3,4-dihydro-2H-pyrrolo[3,4-b][1,4,5]oxathiazepine-6-carboxamide] showed a melting point of 182.1 °C. In addition, the concentration for a half-maximal effect (EC50) in data set [1] (setting [3]) is 10 nM. Besides, the cytotoxic concentration (CC50) at 4 days in data set [2] was over 25 µM.

The compound `Cn1cc2c(c1C(=O)Nc1ccc(F)c(F)c1)OCC(C)(c1cnccn1)NS2(=O)=O` (single isomer, unassigned) [Compound 145a, N-(3,4-difluorophenyl)-3,7-dimethyl-1,1-dioxo-3-pyrazin-2-yl-2,4-dihydropyrrolo[3,4-b][1,4,5]oxathiazepine-6-carboxamide] had a melting point of 199.4 °C. For the same compound, the EC50 in data set [1] was found to be 14 nM. Also, the CC50 at 4 days in data set [2] was over 25 µM.

Turning to `Cn1cc2c(c1C(=O)Nc1ccc(F)c(F)c1)CC[C@H](C(C)(C)O)NS2(=O)=O` [Compound 102, (3R)—N-(3,4-difluorophenyl)-3-(1-hydroxy-1-methyl-ethyl)-7-methyl-1,1-dioxo-2,3,4,5-tetrahydropyrrolo[3,4-f]thiazepine-6-carboxamide], the melting point came to 218.2 °C. Further, the EC50 in data set [1] (setting [3]) came to 9 nM. For the same compound, the half-maximal cytotoxic concentration (CC50) at 4 days in data set [2] was over 25 µM.

Consider `Cn1cc2c(c1C(=O)Nc1ccc(F)c(F)c1)OCC(C)(Cc1ccnc(Cl)c1)NS2(=O)=O` (stereo not shown) [Compound 190, 3-[(2-chloro-4-pyridyl)methyl]-N-(3,4-difluorophenyl)-3,7-dimethyl-1,1-dioxo-2,4-dihydropyrrolo[3,4-b][1,4,5]oxathiazepine-6-carboxamide], for which the melting point was 225 °C. In addition, the EC50 in data set [1] (setting [3]) was determined as 6 nM. The compound also displayed a CC50 at 4 days in data set [2] of over 25 µM.

The compound `Cn1cc2c(c1C(=O)Nc1ccc(F)c(F)c1)CC(O)CNS2(=O)=O` (stereo not shown) [Compound 68, N-(3,4-difluorophenyl)-4-hydroxy-7-methyl-1,1-dioxo-2,3,4,5-tetrahydropyrrolo[3,4-f]thiazepine-6-carboxamide] came in with a melting point of 229 °C. In data set [1] (setting [3]), the 50% effective concentration (EC50) turned out to be 230 nM. In data set [2], this compound came in with a CC50 at 4 days of over 25 µM.

Turning to `Cn1cc2c(c1C(=O)Nc1ccc(F)c(C#N)c1)OC[C@H](C(C)(C)O)NS2(=O)=O` [Compound 106, (3R)—N-(3-cyano-4-fluoro-phenyl)-3-(1-hydroxy-1-methyl-ethyl)-7-methyl-1,1-dioxo-3,4-dihydro-2H-pyrrolo[3,4-b][1,4,5]oxathiazepine-6-carboxamide], the melting point is 260.1 °C. For the same compound, in data set [1] (setting [3]), the concentration for a half-maximal effect (EC50) was 8 nM. Also, the CC50 at 4 days in data set [2] was over 25 µM.

The compound `Cc1cc(NC(=O)c2c3c(cn2C)S(=O)(=O)N[C@@H]([C@H](C)O)CC3)ccc1F` [Compound 112, (3R)—N-(4-fluoro-3-methyl-phenyl)-3-[(1S)-1-hydroxyethyl]-7-methyl-1,1-dioxo-2,3,4,5-tetrahydropyrrolo[3,4-f]thiazepine-6-carboxamide] yielded a melting point of 287.3 °C. The EC50 in data set [1] (setting [3]) was 3 nM. The compound further showed a CC50 at 4 days in data set [2] of over 25 µM.

Compound `Cn1cc2c(c1C(=O)Nc1ccc(F)c(F)c1)C=CC(C(F)(F)F)NS2(=O)=O` (stereo not shown) [Compound 8, N-(3,4-difluorophenyl)-7-methyl-1,1-dioxo-3-(trifluoromethyl)-2,3-dihydropyrrolo[3,4-f]thiazepine-6-carboxamide] had a melting point of 245.6 °C. Also, in data set [1] (setting [3]), the concentration giving a half-maximal response (EC50) was 47 nM. The cytotoxic concentration (CC50) at 4 days in data set [2] is over 25 µM.

In the case of `Cn1cc2c(c1C(=O)Nc1ccc(F)c(C(F)F)c1)OC[C@](C)(c1ccccn1)NS2(=O)=O` [Compound 169, (3S)—N-[3-(difluoromethyl)-4-fluoro-phenyl]-3,7-dimethyl-1,1-dioxo-3-(2-pyridyl)-2,4-dihydropyrrolo[3,4-b][1,4,5]oxathiazepine-6-carboxamide], the melting point was 208.8 °C. Also, the EC50 in data set [1] (setting [3]) was 17 nM. In addition, the 50% cytotoxic concentration (CC50) at 4 days in data set [2] is over 25 µM.

On to `Cn1cc2c(c1C(=O)Nc1ccc(F)c(Cl)c1)OC[C@H](C(C)(C)O)NS2(=O)=O` [Compound 180, (3R)—N-(3-chloro-4-fluoro-phenyl)-3-(1-hydroxy-1-methyl-ethyl)-7-methyl-1,1-dioxo-3,4-dihydro-2H-pyrrolo[3,4-b][1,4,5]oxathiazepine-6-carboxamide], for which the melting point came out at 234.1 °C. Also, the EC50 in data set [1] (setting [3]) is 5 nM. Moreover, the half-maximal cytotoxic concentration (CC50) at 4 days in data set [2] was over 25 µM.

In turn, `Cn1cc2c(c1C(=O)Nc1ccc(F)c(Br)c1F)CCC(C(C)(C)O)NS2(=O)=O` (stereo not shown) [Compound 179, N-(3-bromo-2,4-difluoro-phenyl)-3-(1-hydroxy-1-methyl-ethyl)-7-methyl-1,1-dioxo-2,3,4,5-tetrahydropyrrolo[3,4-f]thiazepine-6-carboxamide] gave a melting point of 236.8 °C. Further, the EC50 in data set [1] (setting [3]) amounted to 21 nM. In addition, in data set [2], the cytotoxic concentration (CC50) at 4 days is over 25 µM.

The compound `Cn1cc2c(c1C(=O)Nc1ccc(F)c(F)c1)CC[C@@H](C(C)(C)O)NS2(=O)=O` [Compound 113, (3S)—N-(3,4-difluorophenyl)-3-(1-hydroxy-1-methyl-ethyl)-7-methyl-1,1-dioxo-2,3,4,5-tetrahydropyrrolo[3,4-f]thiazepine-6-carboxamide] registered a melting point of 217.7 °C. Besides, in data set [1] (setting [3]), the 50% effective concentration (EC50) was determined as 120 nM. The compound also gave a CC50 at 4 days in data set [2] of over 25 µM.

For the compound `Cn1cc2c(c1C(=O)Nc1ccc(F)c(F)c1)OC[C@](C)(c1ccccn1)NS2(=O)=O` [Compound 127, (3S)—N-(3,4-difluorophenyl)-3,7-dimethyl-1,1-dioxo-3-(2-pyridyl)-2,4-dihydropyrrolo[3,4-b][1,4,5]oxathiazepine-6-carboxamide], the melting point was 270.8 °C. In addition, the EC50 in data set [1] (setting [3]) was found to be 13 nM. The CC50 at 4 days in data set [2] was over 25 µM.

As for `C[C@H]1CCc2c(cn(C)c2C(=O)Nc2ccc(F)c(C(F)F)c2F)S(=O)(=O)N1` [Compound 164, (3S)—N-[3-(difluoromethyl)-2,4-difluoro-phenyl]-3,7-dimethyl-1,1-dioxo-2,3,4,5-tetrahydropyrrolo[3,4-f]thiazepine-6-carboxamide], the melting point was found to be 227.7 °C. Also, the concentration for a half-maximal effect (EC50) in data set [1] (setting [3]) was determined as 12 nM. For the same compound, the 50% cytotoxic concentration (CC50) at 4 days in data set [2] was over 25 µM.

`Cn1cc2c(c1C(=O)Nc1ccc(F)c(C#N)c1)OC[C@](C)(c1ccccn1)NS2(=O)=O` [Compound 128, (3S)—N-(3-cyano-4-fluoro-phenyl)-3,7-dimethyl-1,1-dioxo-3-(2-pyridyl)-2,4-dihydropyrrolo[3,4-b][1,4,5]oxathiazepine-6-carboxamide] yielded a melting point of 235 °C. The EC50 in data set [1] (setting [3]) was found to be 24 nM. Besides, the CC50 at 4 days in data set [2] is over 25 µM.

As for `Cn1cc2c(c1C(=O)Nc1ccnc(C(F)F)c1)OCC(C)(C)NS2(=O)=O` [Compound 158, N-[2-(difluoromethyl)-4-pyridyl]-3,3,7-trimethyl-1,1-dioxo-2,4-dihydropyrrolo[3,4-b][1,4,5]oxathiazepine-6-carboxamide], the melting point came to 229.9 °C. Also, in data set [1] (setting [3]), the EC50 is 31 nM. This compound also yielded a 50% cytotoxic concentration (CC50) at 4 days in data set [2] of over 25 µM.

`Cn1cc2c(c1C(=O)Nc1ccc(F)c(F)c1)OC[C@@H](C(C)(C)O)NS2(=O)=O` [Compound 94, (3S)—N-(3,4-difluorophenyl)-3-(1-hydroxy-1-methyl-ethyl)-7-methyl-1,1-dioxo-3,4-dihydro-2H-pyrrolo[3,4-b][1,4,5]oxathiazepine-6-carboxamide] yielded a melting point of 234.1 °C. The EC50 in data set [1] (setting [3]) turned out to be 80 nM. In data set [2], this compound had a CC50 at 4 days of over 25 µM.

On to `Cn1cc2c(c1C(=O)Nc1ccc(F)c(C(F)F)c1)OC[C@H](C(O)C1CC1)NS2(=O)=O` (stereo partly shown), for which the melting point worked out at 240.7 °C.

`CC(NCC(F)(F)F)C1CCc2c(cn(C)c2C(=O)Nc2cc(F)c(F)c(F)c2)S(=O)(=O)N1` (stereo not shown) showed a melting point of 216.2 °C.

`CC(C)C(O)C1COc2c(cn(C)c2C(=O)Nc2ccc(F)c(F)c2)S(=O)(=O)N1` (racemic) came in with a melting point of 247.3 °C.

`CC(N)[C@H]1CCc2c(cn(C)c2C(=O)Nc2cc(F)c(F)c(F)c2)S(=O)(=O)N1` (stereo in doubt) returned a melting point of 281.2 °C.
